Test results published in EP0584223B1, “NOVEL IMMUNOSUPPRESSIVE COMPOUNDS” (VERTEX PHARMACEUTICALS INCORPORATED, priority 1991, dated 1992).
Read-outs that look alike come from different tables or passages of the source.

Columns and labels:
[1] = target: FK-506 binding protein (Homo sapiens, UniProt P62942); experiment: Competitive binding assay with [3H]dihydro-FK-506; conditions: binding to FKBP; apparent Kd, competition with [3H]dihydro-FK-506
[2] = tested on: PBLs stimulated with JVM human viral-transformed B lymphoblastoid cell line; experiment: MLR bioassay, PBLs stimulated with JVM cells; assay type: cell-based; conditions: read-out: JVM
Description: (§1) Fresh peripheral blood lymphocytes (PBLs) from LeukoPak cells or whole blood from random normal blood donors (tested HIV-negative and hepatitis negative) are isolated and separated by density centrifugation over Histopaque 1077 (Sigma Chemical Co., St. Louis, MO). The murine CTLL cytotoxic T cell line and the human Jurkat T cell line are from ATCC (CTLL-2 ATCC TIB214, JURKAT CLONE E6-1 ATCC TIBl52). The human allogeneic B cell lines used for activation of the fresh PBLs are EBV-transformed lymphocytes from normal healthy adult donors with two completely different HLA haplotypes. All cell lines were routinely tested for the presence of Mycoplasma contamination using the Gibco Mycotect test kit and are Mycoplasma-free. Culture medium consists of RPMI 1640 (Gibco, Grand Island, NY) containing penicillin (50 U/ml) and streptomycin (50 µg/ml), L-glutamine 2 mM, 2 mercaptoethanol (5 x 10^-5), 10% heat-inactivated FCS and 10 mM HEPES.
(§2) All chemical stocks were dissolved in DMSO.
(§3) Antigen activated proliferation of PBLs in a primary mixed lymphocyte reaction was assessed in the presence or absence of different concentrations of tested compounds and control drugs. 5 x 10^4 fresh PBLs were stimulated with 5 x 10^3 of Mitomycin C treated-allogeneic EBV-transformed […] cells, LB and JVM, in a final volume of 200 µl per well in 96-well round-bottomed plates (Mishell, B.B. and S.M. Shiigi, Selected Methods in Cellular Immunology W.H. Freeman and Co., San Francisco, CA (1980); Nelson, P.A. et al., Transplantation 50:286 (1990)). Cultures were pulsed on day 6, harvested 24 h later and counted as in previous section.

[3] = target: FKBP (Homo sapiens, UniProt P62942); experiment: Inhibition of FKBP PPIase (rotamase) activity, chymotrypsin-coupled assay; assay type: biochemical; conditions: apparent Ki
FKBP, sequence (P62942 whole entry): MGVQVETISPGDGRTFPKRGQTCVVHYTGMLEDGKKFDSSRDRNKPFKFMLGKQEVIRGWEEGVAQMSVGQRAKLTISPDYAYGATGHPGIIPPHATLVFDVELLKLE
Description: The inhibition of the PPIase (rotamase) enzyme activity of the FKBP (apparent "Ki" values) can also be measured according to the methods described by either Harding, M.W. et al., Nature 341:758-760 (1989) or Siekierka, J.J. et al., Nature 341:755-757 (1989). The cis-trans isomerization of the […] peptide bond in a model substrate, N-succinyl-Ala-Ala-Pro-Phe-p-nitroanilide, is monitored spectrophotometrically in a coupled assay with chymotrypsin, which releases 4-nitroanilide from the trans form of the substrate. Fischer, G. et al., Nature 337:476-478 (1989). The inhibitory effect of the addition of different concentrations of inhibitor on the extent of the reaction is determined, and analysis of the change in first order rate constant as a function of inhibitor concentration yields an estimate of the apparent Ki value.

[4] = tested on: PBLs stimulated with LB human viral-transformed B lymphoblastoid cell line; experiment: MLR bioassay, PBLs stimulated with LB cells; assay type: cell-based; conditions: read-out: LB
Description: as §1, §2, §3

[5] = tested on: CTLL-20 murine T cell line; experiment: IL-2 microassay, IL-2 dependent CTLL proliferation; assay type: cell-based; conditions: Mus musculus, read-out: CTLL
[6] = tested on: human peripheral blood lymphocytes (PBC); experiment: Mitogenesis assay, PMA plus ionomycin stimulated proliferation; assay type: cell-based; conditions: Lymphocyte, read-out: PMA
[7] = tested on: human peripheral blood lymphocytes (PBC); experiment: Mitogenesis assay, OKT3 stimulated proliferation; assay type: cell-based; conditions: Lymphocyte, read-out: OKT3
[8] = Bioavailability in rats, blood levels by HPLC; assay type: in vivo; conditions: rat, 50 mg/kg single dose, whole blood
Protocol: Bioavailability of compound (20) was determined in rats. A single dose of 50 mg/kg was administered by oral gavage or intraperitoneal (IP) injection in a vehicle consisting of olive oil-10% ethanol. Thereafter, animals were sacrificed at 0.5, 1, 2, 4, 8 and 12 hr, blood was collected into sodium heparin and immediately frozen. Whole blood was extracted with acetonitrile-methanol (90/10 vol:vol) and the concentration of compound per ml of blood was determined by HPLC. […] After oral administration, blood levels of 0.5µM, 1µM, 2µM, 12µM, and 3µM were measured at .05h, 1h, 2h, 4h, and 8h, respectively.

[9] = Bioavailability in rats, blood levels by HPLC; assay type: in vivo; conditions: rat, oral gavage, 50 mg/kg single dose, .05h, whole blood
[10] = tested on: T-cell clone stimulated with antibody to the T-cell receptor (TCR) and antibody to CD2; experiment: Table 3 assay 2: T-cell hybridoma + TCR/CD2 proliferation; assay type: cell-based; conditions: (3H)TdR incorporation, estimated
[11] = tested on: fresh human peripheral blood lymphocytes; experiment: Table 3 assay 1: human PBL + OKT3 proliferation; assay type: cell-based; conditions: Lymphocyte, OKT3 antibody (anti-CD3) stimulation, (3H)TdR incorporation, estimated
[12] = tested on: CTLL cells; experiment: Table 3 assay 4: CTLL proliferation + IL-2; assay type: cell-based; conditions: Mus musculus, exogenous IL-2, (3H)TdR incorporation
[13] = tested on: T-cell hybridoma; experiment: Table 3 assay 3: apoptosis, activation-induced (anti-CD3) cell death; assay type: cell-based; conditions: at 1µg/ml; inhibition of activation-induced cell death, viable cell count
[14] = mixed lymphocyte reaction, JVM stimulator cells, inhibition of proliferation
[15] = mixed lymphocyte reaction, LB stimulator cells, inhibition of proliferation
[16] = inhibition of proliferation of cytotoxic T cells stimulated by IL-2
[17] = OKT3 (10^-4 dilution final), inhibition of proliferation, 3H-thymidine

FK-506 binding protein, sequence (P62942 whole entry): as above

SMILES	Kd [1] [µM]	Ki [3] [µM]	IC50 [2, 14] [µM]	IC50 [4, 15] [µM]	IC50 [5, 16] [µM]	IC50 ([6]; 3 h) [µM]	IC50 [7, 17] [µM]	other results
COc1ccc(CCCC(CCCc2ccccc2)OC(=O)[C@@H]2CCCCN2C(=O)C(=O)c2cc(OC)c(OC)c(OC)c2)cc1 (stereo partly drawn) [Compound 17]	0.068	0.003	–	–	–	–	–	IC50 [2]: 7 µM; IC50 [4]: 5.5 µM; IC50 ([5]; CTLL): > 10 µM; IC50 [6]: 4.5 µM; IC50 [7]: 2.5 µM
COc1cc(C(=O)C(=O)N2CCCC[C@H]2C(=O)OC(CCCc2ccccc2)CCCc2ccccn2)cc(OC)c1OC (stereo partly drawn) [Compound 20]	0.004	0.001	2.5	2	2	1.7	2	concentration at 0.5 h ([8]; IP, 0.5h): 0.7 µM; concentration at 1 h ([8]; IP): 22 µM; concentration at 2 h ([8]; IP): 225 µM; concentration at 4 h ([8]; IP): 45 µM; concentration at 8 h ([8]; IP): 1 µM; concentration at 1 h ([8]; oral gavage): 1 µM; concentration at 2 h ([8]; oral gavage): 2 µM; concentration at 4 h ([8]; oral gavage): 12 µM; concentration at 8 h ([8]; oral gavage): 3 µM; concentration at 0.05 h [9]: 0.5 µM
COc1cc(C(=O)C(=O)N2CCCC[C@H]2C(=O)OC(CCCc2ccccc2)CCCc2ccc(CO)cc2)cc(OC)c1OC (stereo partly drawn) [Compound 26]	0.019	0.004	2.5	3	4	3	1	–
COc1cc(C(=O)C(=O)N2CCCC[C@H]2C(=O)OC(CCCc2ccccc2)CCCc2cccc(CO)c2)cc(OC)c1OC (stereo partly drawn) [Compound 35]	0.04	0.001	3	2.5	2.5	2.7	6.5	–
COc1cc(C(=O)C(=O)N2CCCC[C@H]2C(=O)OC(CCCc2ccccc2)CCCc2cccc(C(=O)O)c2)cc(OC)c1OC (stereo partly drawn) [Compound 36]	0.02	0.004	9	> 10	> 10	> 10	> 10	–
COc1cc(C(=O)C(=O)N2CCCC[C@H]2C(=O)OC(CCCc2ccccc2)c2cccc(CO)c2)cc(OC)c1OC (stereo partly drawn) [Compound 37]	0.14	0.007	2.2	1.2	1.2	2	5	–
COc1cc(C(=O)C(=O)N2CCCC[C@H]2C(=O)OC(CCCCCc2ccccc2)CCCc2ccccc2)cc(OC)c1OC (stereo partly drawn) [Compound 41]	–	0.045	10	> 10	> 10	7	> 10	–
C=CC[C@@H]1/C=C(\C)C[C@H](C)C[C@H](OC)[C@H]2O[C@@](O)(C(=O)C(=O)N3CCCC[C@H]3C(=O)O[C@H](/C(C)=C/[C@@H]3CC[C@@H](O)[C@H](OC)C3)[C@H](C)[C@@H](O)CC1=O)[C@H](C)C[C@@H]2OC [FK-506]	–	–	–	–	–	–	–	IC50 [10]: < 1 mg/L; IC50 [11]: < 1 mg/L; IC50 [12]: > 1 mg/L
CO[C@H]1C[C@@H]2CC[C@@H](C)[C@@](O)(O2)C(=O)C(=O)N2CCCC[C@H]2C(=O)O[C@H]([C@H](C)C[C@@H]2CC[C@@H](O)[C@H](OC)C2)CC(=O)[C@H](C)/C=C(\C)[C@@H](O)[C@@H](OC)C(=O)[C@H](C)C[C@H](C)/C=C/C=C/C=C/1C [Rapamycin]	–	–	–	–	–	–	–	IC50 [10]: < 1 mg/L; IC50 [11]: < 1 mg/L; Apoptosis [13]: Inactive at 1µg/ml; IC50 [12]: ~0.01 mg/L

More lines, in order of falling Ki [3], values ahead:

Kd [1] [µM]	Ki [3] [µM]	SMILES	IC50 [2, 14] [µM]	IC50 [4, 15] [µM]	IC50 [5, 16] [µM]	IC50 ([6]; 3 h) [µM]	IC50 [7, 17] [µM]	other results
0.04	0.08	COc1cc(C(=O)C(=O)N2CCCC[C@H]2C(=O)OC(CCCc2ccccc2)c2ccccc2)cc(OC)c1OC (stereo partly drawn) [Compound 6]	9	10	5	8	8	–
0.03	0.027	COc1cc(C(=O)C(=O)N2CCCC[C@H]2C(=O)OC(CCCc2ccccc2)/C(C)=C/[C@H]2CC[C@H](O)CC2)cc(OC)c1OC (mixture of isomers) [Compound 8, (R and S)-(E)-1-[trans-(4-Hydroxycyclohexyl)]-2-methyl-6-phenyl-3-hex-1-enyl (S)-N-(3,4,5-trimethoxyphenylglyoxyl)pipecolate]	10	10	4	4	5	–
0.027	0.004	COc1ccc(CCC(CCCc2ccccc2)OC(=O)[C@@H]2CCCCN2C(=O)C(=O)c2cc(OC)c(OC)c(OC)c2)cc1 (stereo partly drawn) [Compound 13]	> 10	> 10	9	8	10	–
0.003	0.002	CC(C)Oc1cccc(C(=O)C(=O)N2CCCC[C@H]2C(=O)OC(CCCc2ccccc2)CCCc2cccnc2)c1 (stereo partly drawn) [Compound 29]	> 10	> 10	4	10	8	–
